Consider 13 molecules from patent US12577231B2, “Androgen receptor PROTACS” (GlaxoSmithKline Intellectual Property Development Limited, priority 2023, dated 2026).

Bounds are passed on as bounds.

The experiment deals with T1, Androgen Receptor dual T878A/L702H mutant protein (Homo sapiens, UniProt P10275, L702H/T878A).
T1 construct: host or cells: MDA-PCa-2b
T1 sequence (P10275 1-920 L702H/T878A): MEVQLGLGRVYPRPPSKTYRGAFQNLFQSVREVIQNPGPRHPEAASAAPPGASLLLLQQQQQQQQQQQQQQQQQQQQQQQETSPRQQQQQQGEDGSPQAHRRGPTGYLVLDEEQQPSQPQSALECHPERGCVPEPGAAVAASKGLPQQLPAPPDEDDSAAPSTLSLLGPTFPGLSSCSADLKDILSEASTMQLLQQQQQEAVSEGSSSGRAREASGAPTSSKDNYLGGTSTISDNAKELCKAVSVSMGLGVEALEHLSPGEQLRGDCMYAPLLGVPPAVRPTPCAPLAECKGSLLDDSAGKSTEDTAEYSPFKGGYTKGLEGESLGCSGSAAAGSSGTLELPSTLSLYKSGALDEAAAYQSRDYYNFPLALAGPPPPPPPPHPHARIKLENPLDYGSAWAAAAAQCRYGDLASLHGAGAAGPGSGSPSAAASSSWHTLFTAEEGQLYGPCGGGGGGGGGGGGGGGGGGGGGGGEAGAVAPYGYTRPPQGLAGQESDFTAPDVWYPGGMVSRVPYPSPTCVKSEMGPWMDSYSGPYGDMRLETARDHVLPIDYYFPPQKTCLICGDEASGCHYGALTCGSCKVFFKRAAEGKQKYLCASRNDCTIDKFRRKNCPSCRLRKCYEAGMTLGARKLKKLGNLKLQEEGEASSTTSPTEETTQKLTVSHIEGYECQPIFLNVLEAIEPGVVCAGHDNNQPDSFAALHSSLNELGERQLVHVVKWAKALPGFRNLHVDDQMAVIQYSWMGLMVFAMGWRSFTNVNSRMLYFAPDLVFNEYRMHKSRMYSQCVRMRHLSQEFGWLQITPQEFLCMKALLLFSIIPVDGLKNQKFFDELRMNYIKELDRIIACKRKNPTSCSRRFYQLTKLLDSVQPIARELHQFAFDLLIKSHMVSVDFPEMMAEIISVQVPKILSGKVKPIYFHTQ
The experiment can be described thus: Dual Mutant (T878A/L702H) Androgen Receptor Degradation Assay (HTRF, MDA-PCa-2b cells). The experiment is classed as cell-based. The conditions noted are these: 18 h, 18 h incubation, read-out: mean asymptote max. As for the experimental part:
Degradation of Androgen Receptor dual T878A/L702H mutant protein in human MDA-PCa-2b (ATCC) cells treated with PROTACs was quantified using the HTRF Human Androgen Receptor Detection Kit (PerkinElmer) in 384 well assay plate format. 10 mM DMSO (Sigma-Aldrich) stock solutions of PROTACs were prepared and diluted across an 11 concentration, 3-fold increment range, and 25 nL dispensed into a white opaque bottomed 384 well assay plate (Thermofisher) using an acoustic ECHO dispenser (Labcyte). Cells were cultured in growth medium (BRFF—HPC-1 (Athena ES) supplemented with 20% FBS (Gibco), penicillin 50U/mL and streptomycin 50 μg/mL (Gibco, #15140-122)) in collagen I or poly-D-lysine coated T175 flasks (Corning, #356487 or #356539, respectively). For the assay, cells were harvested from the flask, centrifuged at 200 g for 5 min and then resuspended in the growth medium. 25 μl of cell suspension containing 10,000 cells was dispensed into each well of the assay plate containing the test compounds, which was then incubated for 18 h at 37° C./5% CO2. Control wells were included on each assay plate, with assay medium without cells being the no AR remaining 100% effect control, and cells treated with DMSO vehicle only, without PROTAC, the 0% effect control. After 18 h incubation 8 μl of supplemented lysis buffer from HTRF kit was added to each well and the plate shaken at 500 rpm for 1 h at room temperature. 8 μl of antibody mix in Detection buffer from HTRF kit was added to each well and the plate was incubated for 2 h in dark at mom temperature. The fluorescence was measured at both 620 nm and 665 nm using an excitation wavelength of 337 nm with a PHERAstar microplate reader (BMG Labtech) and the % AR protein remaining in each well was calculated by normalising the HTRF ratio (665 nm signal/620 nm signal) value to the control wells mentioned above. Parameters corresponding to the potency and efficacy estimates of the PROTACs were obtained from these normalised values using curve fitting software (IDBS ActivityBase). These included the DC50 and the Dmax estimates. Two versions of the DC50, called relative DC50 and absolute DC50, were typically generated. These are the inflection point of a fitted 4 parameter sigmoidal response curve and the interpolated concentration of PROTAC corresponding to 50% of the protein being degraded, respectively. The Dmax parameter was the maximum experimentally observed degradation and the asymptote max parameter the fitted response curve asymptote maximum.
On the technique in general: In TR-FRET formats the signal depends on donor and acceptor labels being close together.
As for `CC1(C)[C@H](NC(=O)c2ccc(N3CCC(CN4CCC(n5ncc6c(N7CCC(=O)NC7=O)cccc65)CC4)CC3)c(F)c2)C(C)(C)[C@H]1Oc1ccc(C#N)c(Cl)c1` [Example 1, N-((1r,3r)-3-(3-Chloro-4-cyanophenoxy)-2,2,4,4-tetramethylcyclobutyl)-4-(4-((4-(4-(2,4-dioxotetrahydropyrimidin-1(2H)-yl)-1H-indazol-1-yl)piperidin-1-yl)methyl)piperidin-1-yl)-3-fluorobenzamide], the Dmax is at least 50%. With `Cc1c(O[C@H]2C(C)(C)[C@H](NC(=O)c3ccc(N4CCC(CN5CCC(n6ncc7c(N8CCC(=O)NC8=O)cccc76)CC5)CC4)c(F)c3)C2(C)C)ccc(C#N)c1Cl` [Example 2, N-((1r,3r)-3-(3-Chloro-4-cyano-2-methylphenoxy)-2,2,4,4-tetramethylcyclobutyl)-4-(4-((4-(4-(2,4-dioxotetrahydropyrimidin-1(2H)-yl)-1H-indazol-1-yl)piperidin-1-yl)methyl)piperidin-1-yl)-3-fluorobenzamide] the figure was at least 50%; with `CCOc1cc(O[C@H]2C(C)(C)[C@H](NC(=O)c3ccc(N4CCC(CN5CCC(n6ncc7c(N8CCC(=O)NC8=O)cccc76)CC5)CC4)c(F)c3)C2(C)C)ccc1C#N` [Example 4, N-((1r,3r)-3-(4-Cyano-3-ethoxyphenoxy)-2,2,4,4-tetramethylcyclobutyl)-4-(4-((4-(4-(2,4-dioxotetrahydropyrimidin-1(2H)-yl)-1H-indazol-1-yl)piperidin-1-yl)methyl)piperidin-1-yl)-3-fluorobenzamide], at least 50%. The figure for `Cc1ccc2c(O[C@H]3C(C)(C)[C@H](NC(=O)c4ccc(N5CCC(CN6CCC(n7ncc8c(N9CCC(=O)NC9=O)cccc87)CC6)CC5)c(F)c4)C3(C)C)ccc(C#N)c2n1` [Example 7, N-((1r,3r)-3-((8-cyano-2-methylquinolin-5-yl)oxy)-2,2,4,4-tetramethylcyclobutyl)-4-(4-((4-(4-(2,4-dioxotetrahydropyrimidin-1(2H)-yl)-1H-indazol-1-yl)piperidin-1-yl)methyl)piperidin-1-yl)-3-fluorobenzamide] is at least 50%; for `CC1(C)[C@H](NC(=O)c2ccc(N3CCC(CN4CCC(n5ncc6c(N7CCC(=O)NC7=O)cccc65)CC4)CC3)c(F)c2)C(C)(C)[C@H]1Oc1ccc(C#N)c2c1CCO2` [Example 9, N-((1r,3r)-3-((7-Cyano-2,3-dihydrobenzofuran-4-yl)oxy)-2,2,4,4-tetramethylcyclobutyl)-4-(4-((4-(4-(2,4-dioxotetrahydropyrimidin-1(2H)-yl)-1H-indazol-1-yl)piperidin-1-yl)methyl)piperidin-1-yl)-3-fluorobenzamide] it is at least 50%; for `CC1(C)[C@H](NC(=O)c2ccc(N3CCC(CN4CC[C@H](n5ncc6c(N7CCC(=O)NC7=O)cccc65)C4)CC3)c(F)c2)C(C)(C)[C@H]1Oc1ccc(C#N)c(Cl)c1` [Example 10, N-((1r,3r)-3-(3-Chloro-4-cyanophenoxy)-2,2,4,4-tetramethylcyclobutyl)-4-(4-(((S)-3-(4-(2,4-dioxotetrahydropyrimidin-1(2H)-yl)-1H-indazol-1-yl)pyrrolidin-1-yl)methyl)piperidin-1-yl)-3-fluorobenzamide] it is at least 50%.

`CC1(C)[C@H](NC(=O)c2ccc(N3CCC(CN4CCC(n5ncc6c(N7CCC(=O)NC7=O)cc(F)cc65)CC4)CC3)c(F)c2)C(C)(C)[C@H]1Oc1ccc(C#N)c(Cl)c1` [Example 11, N-((1r,3r)-3-(3-Chloro-4-cyanophenoxy)-2,2,4,4-tetramethylcyclobutyl)-4-(4-((4-(4-(2,4-dioxotetrahydropyrimidin-1(2H)-yl)-6-fluoro-1H-indazol-1-yl)piperidin-1-yl)methyl)piperidin-1-yl)-3-fluorobenzamide]: the Dmax was at least 50%. The figure for `CC1(C)[C@H](NC(=O)c2ccc(N3CCC(CN4CCC(n5ccc6c(N7CCC(=O)NC7=O)c(F)ccc65)CC4)CC3)c(F)c2)C(C)(C)[C@H]1Oc1ccc(C#N)c(Cl)c1` [Example 12, N-((1r,3r)-3-(3-Chloro-4-cyanophenoxy)-2,2,4,4-tetramethylcyclobutyl)-4-(4-((4-(4-(2,4-dioxotetrahydropyrimidin-1(2H)-yl)-5-fluoro-1H-indol-1-yl)piperidin-1-yl)methyl)piperidin-1-yl)-3-fluorobenzamide] is at least 50%.

Turning to `CC1(C)[C@H](NC(=O)c2ccc(N3CCC(CN4CC[C@H](n5ncc6c(N7CCC(=O)NC7=O)cccc65)[C@H](F)C4)CC3)c(F)c2)C(C)(C)[C@H]1Oc1ccc(C#N)c(Cl)c1` [Example 14, N-((1r,3r)-3-(3-Chloro-4-cyanophenoxy)-2,2,4,4-tetramethylcyclobutyl)-4-(4-(((3R,4S)-4-(4-(2,4-dioxotetrahydropyrimidin-1(2H)-yl)-1H-indazol-1-yl)-3-fluoropiperidin-1-yl)methyl)piperidin-1-yl)-3-fluorobenzamide], the Dmax was at least 50%. With `COc1cc(O[C@H]2C(C)(C)[C@H](NC(=O)c3ccc(N4CCC(CN5CCC(n6ncc7c(N8CCC(=O)NC8=O)cccc76)CC5)CC4)c(F)c3)C2(C)C)ccc1C#N` [Example 21, N-((1r,3r)-3-(4-Cyano-3-methoxyphenoxy)-2,2,4,4-tetramethylcyclobutyl)-4-(4-((4-(4-(2,4-dioxotetrahydropyrimidin-1(2H)-yl)-1H-indazol-1-yl)piperidin-1-yl)methyl)piperidin-1-yl)-3-fluorobenzamide] the figure was at least 50%. `COc1cc(O[C@H]2C(C)(C)[C@H](NC(=O)c3ccc(N4CCC(CN5CCC(n6ccc7c(N8CCC(=O)NC8=O)cccc76)CC5)CC4)c(F)c3)C2(C)C)ccc1C#N` [Example 22, N-((1r,3r)-3-(4-Cyano-3-methoxyphenoxy)-2,2,4,4-tetramethylcyclobutyl)-4-(4-((4-(4-(2,4-dioxotetrahydropyrimidin-1(2H)-yl)-1H-indol-1-yl)piperidin-1-yl)methyl)piperidin-1-yl)-3-fluorobenzamide]: the Dmax is at least 50%.

For the molecule `COc1cc(O[C@H]2C(C)(C)[C@H](NC(=O)c3ccc(N4CCC(CN5CCC(n6ccc7c(N8CCC(=O)NC8=O)c(F)ccc76)CC5)CC4)c(F)c3)C2(C)C)ccc1C#N` [Example 23, N-((1r,3r)-3-(4-Cyano-3-methoxyphenoxy)-2,2,4,4-tetramethylcyclobutyl)-4-(4-((4-(4-(2,4-dioxotetrahydropyrimidin-1(2H)-yl)-5-fluoro-1H-indol-1-yl)piperidin-1-yl)methyl)piperidin-1-yl)-3-fluorobenzamide], the Dmax is at least 50%. With `COc1cc(O[C@H]2C(C)(C)[C@H](NC(=O)c3ccc(N4CCC(CN5CCC(n6ncc7c(N8CCC(=O)NC8=O)cc(F)cc76)CC5)CC4)c(F)c3)C2(C)C)ccc1C#N` [Example 24, N-((1r,3r)-3-(4-Cyano-3-methoxyphenoxy)-2,2,4,4-tetramethylcyclobutyl)-4-(4-((4-(4-(2,4-dioxotetrahydropyrimidin-1(2H)-yl)-6-fluoro-1H-indazol-1-yl)piperidin-1-yl)methyl)piperidin-1-yl)-3-fluorobenzamide] the figure was at least 50%.
